Source: PMC6191185 (Cancer cell, 2018)
pIC50: −log10 of the molar value.

Molecular target: T1, CARM1 (co-activator associated arginine methyltransferase 1, PRMT4) (Homo sapiens, UniProt Q86X55)
T1 sequence (Q86X55 2-608): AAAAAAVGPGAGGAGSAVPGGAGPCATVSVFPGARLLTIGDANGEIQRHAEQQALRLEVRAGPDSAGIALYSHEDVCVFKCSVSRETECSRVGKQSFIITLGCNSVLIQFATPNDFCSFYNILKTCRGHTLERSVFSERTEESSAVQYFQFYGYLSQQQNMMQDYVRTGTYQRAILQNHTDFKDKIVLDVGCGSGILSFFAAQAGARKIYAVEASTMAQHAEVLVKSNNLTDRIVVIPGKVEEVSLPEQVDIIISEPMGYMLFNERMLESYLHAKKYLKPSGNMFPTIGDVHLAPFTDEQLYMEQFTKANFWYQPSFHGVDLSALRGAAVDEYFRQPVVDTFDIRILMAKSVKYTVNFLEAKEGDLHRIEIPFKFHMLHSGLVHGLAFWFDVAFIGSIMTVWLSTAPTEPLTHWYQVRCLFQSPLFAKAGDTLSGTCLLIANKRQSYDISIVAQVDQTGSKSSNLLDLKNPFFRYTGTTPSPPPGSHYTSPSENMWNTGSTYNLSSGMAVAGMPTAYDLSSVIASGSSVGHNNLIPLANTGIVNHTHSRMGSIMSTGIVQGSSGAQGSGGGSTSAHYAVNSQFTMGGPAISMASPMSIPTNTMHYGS
Experiment: cellular CARM1 substrate methylation
Format: cell-based

pIC50: 7.74
SMILES: CNC[C@@H](O)COc1ccc(Cl)c(-c2nc(-c3c(C)noc3C)c(C)c(N3Cc4cnc(N5CCC5)nc4C3)n2)c1 [EPZ025654]
